Assay results as given in PubChem BioAssay (NCI).
Values joined by “and” are separate entries in the source; they are usually repeats but may differ in a detail not shown here. Equal values may be shown once.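 These data come from cells grown in 96-well plates and exposed to compound for 48 hours at five concentrations. Abbreviation: GI50, concentration required for 50% inhibition of growth. Definition used: TGI = concentration required for complete inhibition of growth.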

Columns and labels:
Test in all cases: DTP human tumour cell line panel, 48 h
HT29 colon = test system: HT29 colon
U251 CNS = test system: U251 CNS
MDA-MB-435 = test system: MDA-MB-435
SNB-19 CNS = test system: SNB-19 CNS
UACC-62 melanoma = test system: UACC-62 melanoma
PC-3 prostate = test system: PC-3 prostate
SK-MEL-2 melanoma = test system: SK-MEL-2 melanoma
DU-145 prostate = test system: DU-145 prostate
HCC-2998 colon = test system: HCC-2998 colon
MOLT-4 leukemia = test system: MOLT-4 leukemia
COLO 205 colon = test system: COLO 205 colon
SF-295 CNS = test system: SF-295 CNS

| Structure (SMILES) | TGI (HT29 colon) | TGI (U251 CNS) | TGI (MDA-MB-435) | TGI (SNB-19 CNS) | TGI (UACC-62 melanoma) | TGI (PC-3 prostate) | TGI (SK-MEL-2 melanoma) | TGI (DU-145 prostate) | TGI (HCC-2998 colon) | TGI (MOLT-4 leukemia) | TGI (COLO 205 colon) | TGI (SF-295 CNS) | GI50 (UACC-62 melanoma) | GI50 (HCC-2998 colon) | GI50 (MOLT-4 leukemia) |
| --- | --- | --- | --- | --- | --- | --- | --- | --- | --- | --- | --- | --- | --- | --- | --- |
| COC(=O)C1=C(C(=O)OC)C2(c3ccccc3)c3ccccc3C(=O)C1N2C1CCCCC1 (stereo not drawn) | > 100 µM | > 100 µM | > 100 µM | > 100 µM | > 100 µM | > 100 µM | > 100 µM | > 100 µM | > 77.4 µM | > 81.4 µM | 32.8 µM | > 100 µM | – | – | – |
| COC(=O)C1C(O)C(C)C(O)C(C)/C=C\C=C(C)C(=O)Nc2c(C)c(OC(C)=O)c3c(c2O)C(=O)C(C)=C2OCOC(=C23)C(C)=CC(C)(O)C(O)C(C)C1O (stereo not drawn) | 40.2 µM and > 100 µM | > 100 µM | > 100 µM | > 100 µM | 37.7 µM and > 100 µM | > 100 µM | 36.2 µM and > 100 µM | > 100 µM | > 100 µM | 45.4 µM and > 100 µM | 36.3 µM and 58.6 µM | > 100 µM | 17 µM and > 100 µM | > 100 µM | 18.1 µM and 51.1 µM |
| [N-]=[N+]=NC1(c2ccccc2)C(=O)c2cccc3c4ccccc4n(c23)C1=O (stereo not drawn) | 50.8 µM | > 100 µM | 92.8 µM | > 100 µM | > 100 µM | > 100 µM | > 100 µM | > 100 µM | > 100 µM | > 100 µM | 38.7 µM | > 100 µM | – | – | – |
| COc1ccc(OC)c2sc(N3C(=O)/C(=C/c4ccc(N(C)C)cc4)N=C3c3ccccc3)nc12 | > 100 µM | > 100 µM | > 100 µM | > 100 µM | > 100 µM | 81.2 µM | > 100 µM | > 100 µM | > 100 µM | 65.7 µM | > 100 µM | > 100 µM | – | – | – |
| CCOC(=O)CCN1C(=O)c2ccc(NC(=O)C(=O)O)cc2S1(=O)=O | > 100 µM | > 100 µM | > 100 µM | > 100 µM | > 100 µM | > 100 µM | > 100 µM | > 100 µM | > 100 µM | > 100 µM | > 100 µM | > 100 µM | – | – | – |
